Laboratory results from paper PMC2364625, “Characterization and site-directed mutagenesis of Wzb, an O-phosphatase from Lactobacillus rhamnosus” (BMC Biochemistry, 2008).

How the values were obtained:
Wzb [1] = target: T1, Wzb (Lacticaseibacillus rhamnosus, UniProt Q58Z13); assay: pNPP hydrolysis, absorbance at […] nm; format: biochemical; details: 2.5 mM pNPP; MES-HEPES, 1% BSA; Cu2+ essential, Co2+ stimulates; optimum pH 7.3, 75 °C
T1 construct: 6His-tagged fusion, pQE30 (pGL387, wzb ORF in SacI-KpnI), E. coli NM522, purified under urea and renatured on Ni-NTA, 27 kDa; tag not reported as cut; forward primer starts at codon 2 (Ile)
T1 sequence (Q58Z13 2-254): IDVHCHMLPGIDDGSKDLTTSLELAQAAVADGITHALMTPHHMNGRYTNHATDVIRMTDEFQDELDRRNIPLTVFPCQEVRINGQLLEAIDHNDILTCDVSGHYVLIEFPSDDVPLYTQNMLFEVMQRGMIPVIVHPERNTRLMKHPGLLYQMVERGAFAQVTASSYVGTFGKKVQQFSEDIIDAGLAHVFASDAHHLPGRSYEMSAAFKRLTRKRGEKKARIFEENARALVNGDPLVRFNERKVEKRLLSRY

Wzb [2] = target: T1, Wzb; assay: pNPP hydrolysis, absorbance at […] nm; format: biochemical; details: inhibitor; increasing inhibition from 1 mM to 100 mM, no residual activity at 100 mM (data not shown); substrate pNPP

Q: For `O=[N+]([O-])c1ccc(OP(=O)(O)O)cc1` [p-nitrophenyl-phosphate], which “pNPP hydrolysis, absorbance at 405 nm” value (Wzb [1]) is on record?
A: The purified Wzb fusion protein was active on p-nitrophenyl-phosphate (pNPP)

Q: How did the inhibition (Wzb [2]) turn out when `[O]=[V]([OH])([OH])[OH]` [sodium orthovanadate] was run?
A: Wzb activity on pNPP was inhibited by sodium orthovanadate (Na3VO4)
